Experiments:
Experiment in all cases: Checkerboard MIC assay, FICI
Conditions in all cases: combination with Compound 1
A. fumigatus ATCC 14110 = format: cell-based, Aspergillus fumigatus
Text: (§1) The following assay was used to determine the minimum inhibitory concentration (MIC) and fractional inhibitory concentration index (FICI) for combinations of an antifungal agent and a glycopeptide antibacterial agent. This assay and methods for calculating FICI are well known in the art. See, for example, Eliopoulos, E. G. and R. Moellering, Jr. “Antimicrobial Combinations” in Antibiotics in Laboratory Medicine, edited by V. Lorian, 4th Ed., Williams & Wilkins, Baltimore, MD, pp. 330-396 (1996); […] et al., Antimicrobial Agents and Chemotherapy 47(4):1416-1418 (2003); or […] et al., Antimicrobial Agents and Chemotherapy 46(10):3323-3326 (2002). […] The MIC of the glycopeptide antibacterial agent determined from this experiment was used in FIC calculations. […]

A. flavus ATCC 64025 = format: cell-based, Aspergillus flavus
Text: as §1

[1] = tested on: F. moniliforme ATCC 38159; format: cell-based, Fusarium moniliforme
Text: as §1

[2] = tested on: R. microsporus ATCC 14050; format: cell-based, Rhizopus microsporus
Text: as §1

SMILES	FICI (A. fumigatus ATCC 14110)	FICI (A. flavus ATCC 64025)	FICI [1]	FICI [2]
C[C@@H]1[C@H](O)[C@@H](C)/C=C/C=C/C=C/C=C/C=C/C=C/C=C/[C@H](O[C@@H]2O[C@H](C)[C@@H](O)[C@H](N)[C@@H]2O)C[C@@H]2O[C@](O)(C[C@@H](O)C[C@@H](O)[C@H](O)CC[C@@H](O)C[C@@H](O)CC(=O)O[C@H]1C)C[C@H](O)[C@H]2C(=O)O [Amphotericin B]	0.31	0.51	0.53	0.27
C[C@@H]1[C@H](O)[C@@H](C)/C=C/C=C/CC/C=C/C=C/C=C/C=C/C(O[C@H]2O[C@H](C)[C@@H](O)[C@H](N)[C@@H]2O)CC2O[C@](O)(CC(O)C(O)CCC(O)CC(O)CC(O)CC(=O)O[C@H]1C)CC(O)C2C(=O)O (some centres unmarked) [Nystatin]	1.25	0.51	0.51	0.51

Reference: US7521418B2, “Use of a polyene macrolide antifungal agent in combination with a glycopeptide antibacterial agent” (Theravance, Inc., priority 2003, dated 2009)
